In patent publication EP3723745B1, “PHENOXY ACIDS FOR THE TREATMENT OF NEUROMUSCULAR DISORDERS” (NMD Pharma A/S, priority 2017, dated 2019):

Target: T1, human CIC-1 channels (Homo sapiens, UniProt P35523)
T1 construct: host or cells: CHO cells constitutively expressing human ClC-1
Experiment: Automated patch-clamp on human CIC-1 expressed in CHO cells
Format: cell-based
Conditions: difference in half activation voltage, compound added intracellularly vs control cell patches; positive shift = CIC-1 inhibition
Method: The investigatory goal of these experiments was to evaluate how compounds affect the open probability and current amplitude of human CIC-1 channels expressed in CHO cells. Experiments were performed using an automated patch clamp system that allowed high throughput testing of whole cell patches together with both intracellular and extracellular addition of compound.
Automated whole cell patch clamp experiments were performed with the Qpatch 16 system (Sophion Bioscience, Ballerup, Denmark) at room temperature. Data acquisition and analysis were performed in the Qassay software (ver. 5.6, Odense).
To evoke CIC-1 currents in whole cell patches, the membrane potential was initially stepped from a holding potential of -30 mV to +60 mV for 100 ms and then to various test voltages (sweeps) ranging from +120 mV to -140 mV in steps of 20 mV for 300 ms. To obtain tail currents, the membrane potential was stepped to -100 mV after each test voltage for 300 ms and then relaxed to -30 mV for 2 sec between sweeps (Figure 3). I/V relationships for whole cell instant and steady state current amplitudes were obtained by plotting average current densities at the beginning and at the end of the 300 ms step against the membrane potential (Figure 4).
In order to determine the relative overall open probability (P0), the instantaneous tail currents were normalized to the maximal tail current obtained following the most positive voltage step and plotted against the test voltage. Plots of normalized tail currents from each whole cell patch were then fitted to a Boltzmann function allowing determination of half activation voltages (V1/2, Figure 5).
For automated patch clamp experiments extracellular solutions contained: 2 mM CaCl2, 1 mM MgCl2, 10 mM HEPES, 4 mM KCI, 145 mM NaCl, 10 mM Glucose, pH adjusted to 7.4 with NaOH (2 M). Osmolality adjusted to -320 using sucrose.
Intracellular solutions contained: 80 mM CsF, 60 mM CsCI, 5/1 mM KOH/EGTA, 10 mM HEPES, 10 mM NaCl, pH adjusted to 7.2 with NaOH (2 M). Osmolality adjusted to -320 mOsm using sucrose.
Cells used in patch clamp experiments were Chinese hamster ovary cells (CHO) constitutively expressing human CIC-1 channels. The amino acid sequence encoded by the cDNA used to create this cell line was identical to the translated sequence for GenBank accession number NM_000083.2. Cells were produced by Charles River (Catalogue CT6175, Cleveland OH, USA) in a cryopreserved format. Experiments were performed on the cells directly after thawing (3 × 10^6 cells used in each experiment).
To evaluate the compound effect on CIC-1, when applied directly to the intracellular side of the cell membrane, the half activation voltage, V1/2, was determined from whole cell patches with compound added to the intracellular solution and then compared to V1/2 determined from control cell patches with only vehicle added to the intracellular solution. Additionally, the effect of extracellular added compound was evaluated by determine V1/2 and steady state current amplitudes before and after exchanging the extracellular solution to contain compound.
The difference in half activation voltage of CIC-1 channels, ΔV1/2, was determined as the difference between the cell patches treated intracellularly with compound and control cells patches and is reported in Table 4 below. A positive shift in ΔV1/2 is reflecting CIC-1 channel inhibition by the tested compound. P-values of <0.05 is considered significant. […]

T1 sequence (P35523 whole entry): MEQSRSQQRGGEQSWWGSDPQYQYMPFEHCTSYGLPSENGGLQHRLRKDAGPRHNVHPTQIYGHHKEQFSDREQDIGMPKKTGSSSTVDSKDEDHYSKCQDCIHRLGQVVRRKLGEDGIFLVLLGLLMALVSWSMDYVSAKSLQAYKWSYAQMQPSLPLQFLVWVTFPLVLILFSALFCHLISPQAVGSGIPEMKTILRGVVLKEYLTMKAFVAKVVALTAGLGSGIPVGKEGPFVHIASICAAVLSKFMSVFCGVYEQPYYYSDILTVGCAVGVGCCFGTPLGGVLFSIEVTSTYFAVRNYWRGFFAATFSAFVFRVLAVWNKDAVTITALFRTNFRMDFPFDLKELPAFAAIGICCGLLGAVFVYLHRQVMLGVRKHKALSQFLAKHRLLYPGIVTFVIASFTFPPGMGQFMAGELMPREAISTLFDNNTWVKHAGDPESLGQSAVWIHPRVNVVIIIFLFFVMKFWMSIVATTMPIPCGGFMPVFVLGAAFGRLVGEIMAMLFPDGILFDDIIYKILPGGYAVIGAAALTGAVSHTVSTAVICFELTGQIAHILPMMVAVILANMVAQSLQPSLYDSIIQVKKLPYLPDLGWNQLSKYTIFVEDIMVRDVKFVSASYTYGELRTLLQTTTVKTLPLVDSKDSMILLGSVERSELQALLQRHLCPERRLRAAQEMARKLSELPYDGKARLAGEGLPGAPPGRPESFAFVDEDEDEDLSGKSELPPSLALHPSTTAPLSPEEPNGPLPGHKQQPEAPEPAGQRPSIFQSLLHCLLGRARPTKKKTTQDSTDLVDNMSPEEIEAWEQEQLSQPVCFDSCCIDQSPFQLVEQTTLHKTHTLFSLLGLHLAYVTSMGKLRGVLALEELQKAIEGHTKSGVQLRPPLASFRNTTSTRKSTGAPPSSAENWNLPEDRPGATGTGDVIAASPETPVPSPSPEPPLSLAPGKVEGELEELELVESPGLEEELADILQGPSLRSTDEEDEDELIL

SMILES	ΔV1/2 [mV]
CC(C)[C@H](Oc1ccc(Br)cc1F)C(=O)O [Compound A-27, (2S)-2-(4-bromo-2-fluorophenoxy)-3-methylbutanoic acid]	20.2
[2H][C@@](CC)(Oc1ccc(Br)cc1)C(=O)O [Compound A-60, (2S)-2-(4-bromophenoxy)(2-^2H)butanoic acid]	20.0
O=C(O)[C@H](CCF)Oc1ccc(Br)cc1 [Compound A-87, (2S)-2-(4-bromophenoxy)-4-fluorobutanoic acid]	16.4
